Test systems include BT-549 breast; LOX IMVI melanoma; MDA-MB-231 breast; MDA-MB-435; SN12C renal; TK-10 renal; UACC-257 melanoma; UO-31 renal; SF-295 CNS; SF-539 CNS; RXF 393 renal.
Holding throughout (test): growth of human tumour cells (NCI), 48 h

“And” between values parts separate entries of the source, which are not always exact repeats. Equal entries are not always repeated.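 Protocol summary: plate cells (96-well), add compound at 5 concentrations, incubate 48 h, interpolate endpoints linearly. The concentration for 50% growth inhibition is given as GI50. TGI: concentration producing complete growth inhibition.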 Where a SMILES comes first, the peptide text is derived from it. The star is where a group is joined. Boc = CC(C)(C)OC(=O)*

As to `COC(=O)C(Cc1c[nH]c2ccccc12)NC(=O)C(Cc1c[nH]c2ccccc12)NC(=O)C(Cc1c[nH]c2ccccc12)NC(=O)C(Cc1c[nH]c2ccccc12)NC(=O)C(Cc1c[nH]c2ccccc12)NC(=O)C(Cc1c[nH]c2ccccc12)NC(=O)C(Cc1c[nH]c2ccccc12)NC(=O)C(Cc1c[nH]c2ccccc12)NC(=O)OC(C)(C)C` (stereo not given) (Boc-WWWWWWWW-OMe; configuration not given here), the TGI in the assay with BT-549 breast, with LOX IMVI melanoma, in the assay with MDA-MB-231 breast, in the assay with MDA-MB-435, with SN12C renal and with TK-10 renal was more than 100 µM each time. Besides, the TGI in the assay with UACC-257 melanoma and in the assay on UO-31 renal was more than 100 µM each time.

Consider `COc1cc(/C=C/C(=O)C2(C(=O)/C=C/c3cc(OC)c(OC)c(OC)c3)CCCCC2)cc(OC)c1OC`, for which the TGI in the assay on BT-549 breast was 91.9 µM; in the assay on LOX IMVI melanoma, more than 100 µM; in the assay with MDA-MB-231 breast, more than 100 µM; with MDA-MB-435 it was 42.5 µM; in the assay with SF-295 CNS, 89 µM; in the assay with SF-539 CNS it was 47.8 µM. Also, the TGI with SN12C renal, in the assay with TK-10 renal, in the assay with UACC-257 melanoma and with UO-31 renal was more than 100 µM throughout.

For `CCOC(=O)NC(Nc1ccc(C(=O)OCC)cc1)(C(F)(F)F)C(F)(F)F`, the TGI in the assay with BT-549 breast, in the assay with LOX IMVI melanoma, in the assay on MDA-MB-231 breast, in the assay with MDA-MB-435, in the assay with SF-295 CNS and in the assay on SF-539 CNS was more than 100 µM throughout. Further, the TGI in the assay on SN12C renal, in the assay with TK-10 renal and in the assay on UO-31 renal was more than 100 µM throughout.

With `CC(=O)OCC1OC(n2c(-c3ccc(C)cc3)cc(-c3ccccc3)c(C#N)c2=S)C(OC(C)=O)C(OC(C)=O)C1OC(C)=O` (stereo not given), the TGI with BT-549 breast, in the assay on LOX IMVI melanoma, with MDA-MB-231 breast, in the assay on MDA-MB-435, in the assay on RXF 393 renal and in the assay on SF-295 CNS was more than 100 µM each time. Further, the TGI in the assay with SF-539 CNS, in the assay on SN12C renal, in the assay on TK-10 renal and with UO-31 renal was more than 100 µM throughout.

In the case of `O=C(NNC(=S)NC1CCCCC1)c1csc(NC(=S)NC2CCCCC2)n1`, the TGI with BT-549 breast is 21.1 µM; with LOX IMVI melanoma, 18.9 µM; with MDA-MB-231 breast, 45.1 µM; with MDA-MB-435, 26.6 µM; in the assay with SF-295 CNS, 19.7 µM; with SF-539 CNS, 15.6 µM. Moreover, the TGI in the assay on SN12C renal is 25.9 µM; in the assay with TK-10 renal it was more than 100 µM; with UACC-257 melanoma it was 11.8 µM; in the assay on UO-31 renal, 11.2 µM.

In the case of `C=C1C2C[C@@H]3O[C@H]4C[C@H]5O[C@@]6(C[C@@H]7O[C@]8(C[C@H](C)[C@@H]9O[C@@H]%10CC(CO)O[C@@H]%10C[C@@H]9O8)C[C@H](C)[C@@H]7O6)C[C@H]5O[C@H]4[C@H](C)[C@H]3OC(=O)C[C@H]3CC[C@@H]4OC5[C@H]6O[C@]7(CC[C@H]8CC(=C)[C@H](CC[C@@H](C[C@H]1C)O2)O8)CC6O[C@@H]5[C@@H](O7)[C@H]4O3` (stereo not given in full), the TGI was less than 0.0001 µM in the assay on BT-549 breast; more than 0.433 µM with LOX IMVI melanoma; more than 1 µM in the assay on MDA-MB-231 breast; less than 0.0001 µM with MDA-MB-435; more than 1 µM with RXF 393 renal; more than 1 µM in the assay on SF-295 CNS. For the same compound, the TGI in the assay with SN12C renal, in the assay with TK-10 renal, in the assay with UACC-257 melanoma and with UO-31 renal was more than 1 µM throughout.

As for `COC(=O)C1OC(O[C@H]2CC[C@]3(C)[C@H]4CC=C5[C@@H]6CC(C)(C)CC[C@]6(C(=O)OC6OCC(O)C(O)C6OC6OC(C)C(OC7OCC(O)C(O)C7O)C(O)C6O)CC[C@@]5(C)[C@]4(C)CC[C@H]3C2(C)C)C(O)C(O)C1O` (stereo not given in full), the TGI was 34.1 µM and 33.2 µM in the assay with BT-549 breast; 30.5 µM and 29 µM in the assay with LOX IMVI melanoma; 20.1 µM and 12.6 µM in the assay with MDA-MB-231 breast; 33.8 µM and 32.1 µM with MDA-MB-435; 37 µM and 40.7 µM in the assay on RXF 393 renal; 34.8 µM and 32.2 µM in the assay on SF-295 CNS. Further, the TGI with SN12C renal was 27.1 µM and 31.2 µM; in the assay with UACC-257 melanoma it was 27.4 µM and 29.7 µM; with UO-31 renal, 26.5 µM and 36 µM. Besides, in the assay with MDA-MB-231 breast, the GI50 is 7.51 µM and 2.75 µM.

For the compound `Cc1nc2c(=O)n(C)ncc2[nH]1`, the TGI in the assay on BT-549 breast, in the assay on MDA-MB-231 breast, in the assay on MDA-MB-435, in the assay with RXF 393 renal, in the assay with SF-295 CNS and in the assay with SF-539 CNS was more than 100 µM throughout. Moreover, the TGI with SN12C renal, in the assay with TK-10 renal, in the assay on UACC-257 melanoma and in the assay on UO-31 renal was more than 100 µM each time.

As for `O=C(O)CN1C(=O)C(Cc2ccc(O)cc2)N=C(c2cccc(O)c2)c2ccccc21` (stereo not given), the TGI in the assay with BT-549 breast, in the assay on LOX IMVI melanoma, in the assay on MDA-MB-231 breast, in the assay with MDA-MB-435, in the assay on SF-295 CNS and in the assay with SF-539 CNS was more than 100 µM in each case. For the same compound, the TGI was 34.8 µM in the assay on SN12C renal, more than 100 µM in the assay with TK-10 renal, more than 100 µM in the assay with UACC-257 melanoma and more than 100 µM in the assay with UO-31 renal.

For the compound `BrC(c1cccc2ccccc12)c1cccc2ccccc12`, the TGI with BT-549 breast is 39.3 µM; with LOX IMVI melanoma it was 30.1 µM; with MDA-MB-231 breast, 28 µM; in the assay on MDA-MB-435 it was 21.2 µM; in the assay on RXF 393 renal, 27.9 µM; in the assay with SF-295 CNS, 44.7 µM. Moreover, the TGI in the assay with SN12C renal was 27.4 µM; in the assay on TK-10 renal, more than 100 µM; in the assay with UACC-257 melanoma, 53.3 µM; with UO-31 renal, more than 100 µM.

In the case of `Cn1c2ccccc2c(=O)c2cccc(C(=O)NC(CCC(N)=O)C(=O)O)c21` (stereo not given), the TGI in the assay with BT-549 breast, in the assay with LOX IMVI melanoma, in the assay on MDA-MB-231 breast, in the assay on MDA-MB-435, in the assay on SF-295 CNS and in the assay on SF-539 CNS was more than 100 µM each time. In addition, the TGI with SN12C renal, in the assay with TK-10 renal and with UACC-257 melanoma was more than 100 µM throughout.

Turning to `CC(=O)Nc1c(C)cc2c(nc3n2CCC3O)c1[N+](=O)[O-]` (stereo not given), the TGI in the assay with BT-549 breast, in the assay on LOX IMVI melanoma, with MDA-MB-231 breast, in the assay with MDA-MB-435, with SF-295 CNS and with SF-539 CNS was more than 100 µM in each case. The TGI in the assay with SN12C renal, with UACC-257 melanoma and with UO-31 renal was more than 100 µM each time.

These data come from PubChem BioAssay (NCI).
